{"source": "patent US20140357512A1", "about": "“HISTONE DEACETYLASE (HDAC) BIOMARKERS IN MULTIPLE MYELOMA” (priority 2013, published 2014)", "system": "human myeloma cell line MM.1S", "experiment": "CNP analysis: acetylated peptides in cytoplasm (C), soluble nuclear extract (N), insoluble nuclear pellet (P) of Compound B treated cells", "format": "cell-based", "conditions": "for change in quantity of acetylated peptide, C / fold change in quantity of acetylated peptide, C: cytoplasm (C), normalized to total (C+N+P); for C: change in quantity of acetylated peptide normalized to total (C+N+P) / C: fold change in quantity of acetylated peptide normalized to total (C+N+P): cytoplasm fraction; for P: change in quantity of acetylated peptide normalized to total (C+N+P) / P: fold change in quantity of acetylated peptide normalized to total (C+N+P): insoluble nuclear pellet; for N: change in quantity of acetylated peptide normalized to total (C+N+P) / N: fold change in quantity of acetylated peptide normalized to total (C+N+P): soluble nuclear extract", "method": "This example describes the CNP analysis that was performed on Compound B treated cells from Example 1.\nThe SILAC method was performed as described in Example 1.\nThe harvested “heavy” and “light” labeled cells were initially lysed with 2×NETN buffer (200 mM NaCl, 100 mM Tris-Cl, 2 mM EDTA, 1.0% NP-40, pH 7.2) on ice for 15 min, respectively. The supernatants were saved after 20,000×g centrifugation for 10 minutes at 4° C. After measurement of the protein concentration in “heavy” or “light” labeled supernatants, equal amounts of crude proteins in supernatant were mixed, and the crude proteins were precipitated by adding trifluoroacetic acid (TFA) with 15% final concentration (v/v) (this was called the cytosolic fraction). After washing twice with −20° C. acetone, the proteins pellets were dissolved in 100 mM NH4HCO3 (pH 8.0) for trypsin digestion.\nThe remaining cell pellets were further lysed with 1×ETN buffer (100 mM NaCl, 50 mM Tris-Cl, 1 mM EDTA, pH 7.2) supplemented with 0.5% Triton X-100 on ice for 15 min, respectively. The resulting lysates were clarified by 20,000×g centrifugation for 10 minutes, and the supernatant was saved as nuclear extracts fractions. After measurement of the protein concentration in “heavy” or “light” labeled supernatant, equal amount of crude proteins in supernatant were mixed, and the crude proteins were precipitated by adding trifluoroacetic acid (TFA) with 15% final concentration (v/v) (this was called the nuclear extracts fraction). After washing twice with −20° C. acetone, the proteins pellets were dissolved in 100 mM NH4HCO3 (pH 8.0) for trypsin digestion.\nThe final remaining cell pellets were dissolved in 8 M urea to extract the chromatin-binding proteins. After measurement of protein concentration, equal amount of chromatin-binding proteins in urea solution were mixed, and the proteins were precipitated by adding trifluoroacetic acid (TFA) with 15% final concentration (v/v) (this was called the nuclear pellet fraction). After washing twice with −20° C. acetone, the proteins pellets were dissolved in 100 mM NH4HCO3 for trypsin digestion.\nAfter trypsin digestion for the above three fractions, the Kac affinity enrichment followed by MS analysis and data inquiry were separately performed. The combined Kac data formed the total Kac profiling data in the pair of Compound B vs DMSO.\nCompound B treated cell lysate was fractionated into three subcellular fractions—cytoplasm (C), soluble nuclear extract (N), and insoluble nuclear pellet (P), as described above. Any peptides identified as HDAC6 specific in Example 1 with this subcellular localization information was extremely helpful for understanding their functions inside cells.\nThe third, fourth, and fifth columns of Table 2 show data for Compound B. A “+” indicates a 1.3 fold change or greater in the quantity of peptide when normalized to the total (C+N+P=total) for each peptide for each drug treated group of cells. A “−” indicates a 1.29 fold change or less in the quantity of peptide when normalized to the total (C+N+P=total) for each peptide for each drug treated group of cells. “None” indicates unknown.\nThe sixth, seventh, and eighth columns of Table 2 show data for Compound B. The numbers in these columns represent the fold change in the quantity of peptide when normalized to the total (C+N+P=total) for each peptide for each drug treated group of cells. The numbers are in a log 2 scale so 1 represents a 2× change, 0 represents no change, and None represents unknown.", "key": {"[1]": {"conditions": "peptide AVLIDK(ac)DQSPK (SEQ ID NO: 577), gene HIBCH"}, "[2]": {"conditions": "peptide CSK(ac)LPSSTK(ac)SGWPR (SEQ ID NO: 711), gene PHF15"}, "[3]": {"conditions": "peptide DFGSFDK(ac)FK (SEQ ID NO: 709), gene SOD2"}, "[4]": {"conditions": "peptide INKALDK(ac)TK (SEQ ID NO: 802), gene MYH9"}, "[5]": {"conditions": "peptide K(ac)AINK(ac)AQK (SEQ ID NO: 793), gene HIST1H2BM"}, "[6]": {"conditions": "peptide KGEDFVK(ac)TLK (SEQ ID NO: 750), gene MDH2"}, "[7]": {"conditions": "peptide LENDK(ac)SFR (SEQ ID NO: 678), gene ECI1"}, "[8]": {"conditions": "peptide SELTGK(ac)FEK (SEQ ID NO: 778), gene ANXA5"}}}
{"smiles": "O=C(NO)c1cnc(NC2(c3cccc(F)c3)CCCCC2)nc1", "note": "[Compound B, 2-((1-(3-fluorophenyl)cyclohexyl)amino)-N-hydroxypyrimidine-5-carboxamide]", "values": [{"measurement": "change in quantity of acetylated peptide, C", "setting": "[1]", "value": "− (A “−” indicates a 1.29 fold change or less in the quantity of peptide when normalized to the total (C+N+P=total))"}, {"measurement": "fold change in quantity of acetylated peptide, C", "setting": "[1]", "value": 0.00, "unit": "log 2"}, {"measurement": "change in quantity of acetylated peptide, C", "setting": "peptide FYK(ac)DVLEVGELAK (SEQ ID NO: 596), gene NAA50", "value": "− (A “−” indicates a 1.29 fold change or less in the quantity of peptide when normalized to the total (C+N+P=total))"}, {"measurement": "fold change in quantity of acetylated peptide, C", "setting": "peptide FYK(ac)[…] (SEQ ID NO: 596), gene NAA50", "value": 0.12, "unit": "log 2"}, {"measurement": "fold change in quantity of acetylated peptide, C", "setting": "peptide NCSSFLIK(ac)R (SEQ ID NO: 558), gene RPL28", "value": 0.05, "unit": "log 2"}, {"measurement": "change in quantity of acetylated peptide, C", "setting": "peptide VTCIDPNPNFEK(ac)FLIK (SEQ ID NO: 671), gene METTL7A", "value": "+ (A “+” indicates a 1.3 fold change or greater in the quantity of peptide when normalized to the total (C+N+P=total))"}, {"measurement": "fold change in quantity of acetylated peptide, C", "setting": "peptide […](ac)FLIK (SEQ ID NO: 671), gene METTL7A", "value": 0.44, "unit": "log 2"}, {"measurement": "fold change in quantity of acetylated peptide, C", "setting": "peptide […](ac)QNK (SEQ ID NO: 650), gene DLD", "value": 0.18, "unit": "log 2"}, {"measurement": "C: change in quantity of acetylated peptide normalized to total (C+N+P)", "setting": "[2]", "value": "− (A “−” indicates a 1.29 fold change or less in the quantity of peptide when normalized to the total (C+N+P=total))"}, {"measurement": "C: fold change in quantity of acetylated peptide normalized to total (C+N+P)", "setting": "[2]", "value": 0.11, "unit": "log 2 scale"}, {"measurement": "P: change in quantity of acetylated peptide normalized to total (C+N+P)", "setting": "[2]", "value": "+ (A “+” indicates a 1.3 fold change or greater in the quantity of peptide when normalized to the total (C+N+P=total))"}, {"measurement": "P: fold change in quantity of acetylated peptide normalized to total (C+N+P)", "setting": "[2]", "value": 0.43, "unit": "log 2 scale"}, {"measurement": "N: change in quantity of acetylated peptide normalized to total (C+N+P)", "setting": "[2]", "value": "− (A “−” indicates a 1.29 fold change or less in the quantity of peptide when normalized to the total (C+N+P=total))"}, {"measurement": "N: fold change in quantity of acetylated peptide normalized to total (C+N+P)", "setting": "[2]", "value": 0.04, "unit": "log 2 scale"}, {"measurement": "C: change in quantity of acetylated peptide normalized to total (C+N+P)", "setting": "[3]", "value": "− (A “−” indicates a 1.29 fold change or less in the quantity of peptide when normalized to the total (C+N+P=total))"}, {"measurement": "C: fold change in quantity of acetylated peptide normalized to total (C+N+P)", "setting": "[3]", "value": "−0.28", "unit": "log 2 scale"}, {"measurement": "P: change in quantity of acetylated peptide normalized to total (C+N+P)", "setting": "[3]", "value": "− (A “−” indicates a 1.29 fold change or less in the quantity of peptide when normalized to the total (C+N+P=total))"}, {"measurement": "N: change in quantity of acetylated peptide normalized to total (C+N+P)", "setting": "[3]", "value": "+ (A “+” indicates a 1.3 fold change or greater in the quantity of peptide when normalized to the total (C+N+P=total))"}, {"measurement": "N: fold change in quantity of acetylated peptide normalized to total (C+N+P)", "setting": "[3]", "value": "−0.48", "unit": "log 2 scale"}, {"measurement": "C: change in quantity of acetylated peptide normalized to total (C+N+P)", "setting": "[4]", "value": "− (A “−” indicates a 1.29 fold change or less in the quantity of peptide when normalized to the total (C+N+P=total))"}, {"measurement": "P: change in quantity of acetylated peptide normalized to total (C+N+P)", "setting": "[4]", "value": "− (A “−” indicates a 1.29 fold change or less in the quantity of peptide when normalized to the total (C+N+P=total))"}, {"measurement": "N: change in quantity of acetylated peptide normalized to total (C+N+P)", "setting": "[4]", "value": "+ (A “+” indicates a 1.3 fold change or greater in the quantity of peptide when normalized to the total (C+N+P=total))"}, {"measurement": "N: fold change in quantity of acetylated peptide normalized to total (C+N+P)", "setting": "[4]", "value": 4.75, "unit": "log 2 scale"}, {"measurement": "C: change in quantity of acetylated peptide normalized to total (C+N+P)", "setting": "[5]", "value": "− (A “−” indicates a 1.29 fold change or less in the quantity of peptide when normalized to the total (C+N+P=total))"}, {"measurement": "P: change in quantity of acetylated peptide normalized to total (C+N+P)", "setting": "[5]", "value": "− (A “−” indicates a 1.29 fold change or less in the quantity of peptide when normalized to the total (C+N+P=total))"}, {"measurement": "P: fold change in quantity of acetylated peptide normalized to total (C+N+P)", "setting": "[5]", "value": 0.27, "unit": "log 2 scale"}, {"measurement": "N: change in quantity of acetylated peptide normalized to total (C+N+P)", "setting": "[5]", "value": "+ (A “+” indicates a 1.3 fold change or greater in the quantity of peptide when normalized to the total (C+N+P=total))"}, {"measurement": "N: fold change in quantity of acetylated peptide normalized to total (C+N+P)", "setting": "[5]", "value": "−0.97", "unit": "log 2 scale"}, {"measurement": "C: change in quantity of acetylated peptide normalized to total (C+N+P)", "setting": "[6]", "value": "− (A “−” indicates a 1.29 fold change or less in the quantity of peptide when normalized to the total (C+N+P=total))"}, {"measurement": "C: fold change in quantity of acetylated peptide normalized to total (C+N+P)", "setting": "[6]", "value": 0.15, "unit": "log 2 scale"}, {"measurement": "P: change in quantity of acetylated peptide normalized to total (C+N+P)", "setting": "[6]", "value": "− (A “−” indicates a 1.29 fold change or less in the quantity of peptide when normalized to the total (C+N+P=total))"}, {"measurement": "N: change in quantity of acetylated peptide normalized to total (C+N+P)", "setting": "[6]", "value": "+ (A “+” indicates a 1.3 fold change or greater in the quantity of peptide when normalized to the total (C+N+P=total))"}, {"measurement": "N: fold change in quantity of acetylated peptide normalized to total (C+N+P)", "setting": "[6]", "value": 0.49, "unit": "log 2 scale"}, {"measurement": "C: change in quantity of acetylated peptide normalized to total (C+N+P)", "setting": "[7]", "value": "− (A “−” indicates a 1.29 fold change or less in the quantity of peptide when normalized to the total (C+N+P=total))"}, {"measurement": "C: fold change in quantity of acetylated peptide normalized to total (C+N+P)", "setting": "[7]", "value": 0.12, "unit": "log 2 scale"}, {"measurement": "P: change in quantity of acetylated peptide normalized to total (C+N+P)", "setting": "[7]", "value": "− (A “−” indicates a 1.29 fold change or less in the quantity of peptide when normalized to the total (C+N+P=total))"}, {"measurement": "N: change in quantity of acetylated peptide normalized to total (C+N+P)", "setting": "[7]", "value": "+ (A “+” indicates a 1.3 fold change or greater in the quantity of peptide when normalized to the total (C+N+P=total))"}, {"measurement": "N: fold change in quantity of acetylated peptide normalized to total (C+N+P)", "setting": "[7]", "value": "−0.38", "unit": "log 2 scale"}, {"measurement": "C: change in quantity of acetylated peptide normalized to total (C+N+P)", "setting": "[8]", "value": "− (A “−” indicates a 1.29 fold change or less in the quantity of peptide when normalized to the total (C+N+P=total))"}, {"measurement": "C: fold change in quantity of acetylated peptide normalized to total (C+N+P)", "setting": "[8]", "value": 0.31, "unit": "log 2 scale"}, {"measurement": "P: change in quantity of acetylated peptide normalized to total (C+N+P)", "setting": "[8]", "value": "− (A “−” indicates a 1.29 fold change or less in the quantity of peptide when normalized to the total (C+N+P=total))"}, {"measurement": "N: change in quantity of acetylated peptide normalized to total (C+N+P)", "setting": "[8]", "value": "+ (A “+” indicates a 1.3 fold change or greater in the quantity of peptide when normalized to the total (C+N+P=total))"}, {"measurement": "N: fold change in quantity of acetylated peptide normalized to total (C+N+P)", "setting": "[8]", "value": 0.40, "unit": "log 2 scale"}]}
